In series [1] the target is Epidermal growth factor receptor (Homo sapiens) (UniProt P00533). In words: Inhibition of EGFR (unknown origin) at 1 uM using poly (Glu,Tyr) 4:1 as substrate measured after 1 hr in presence of ATP by spectrophotometric analysis relative to control.
The subject of a further series is HUVEC. In words: Antiproliferative activity against human HUVEC cells expressing VEGFR2 assessed as cell growth inhibition measured after 48 hrs by MTT assay. Type of series: functional, cell-based. (In general: Tetrazolium assays rely on reduction of a dye to a coloured formazan, in cell work by metabolically active cells.)
Series [2] deals with HepG2. The series is described as follows: Antiproliferative activity against human HepG2 cells expressing VEGFR2 assessed as cell growth inhibition measured after 48 hrs by MTT assay. The class given is functional, cell-based. To be noted: HepG2, 48 h.
The subject of a further series is A549. In words: Antiproliferative activity against human A549 cells expressing EGFR assessed as cell growth inhibition measured after 48 hrs by MTT assay. The class given is functional, cell-based. To be noted: A549, 48 h.
The test system of the next series is MDA-MB-231. In words: Antiproliferative activity against human MDA-MB-231 cells expressing EGFR assessed as cell growth inhibition measured after 48 hrs by MTT assay. Type of series: functional, cell-based. To be noted: MDA-MB-231, 48 h.
For a further series, the system named is L02. In words: Cytotoxicity against human LO2 cells. Type of series: cell-based.
The target of series [3] is T1, Vascular endothelial growth factor receptor 2 (Homo sapiens, UniProt P35968). In words: Inhibition of VEGFR2 (unknown origin) using poly (Glu,Tyr) 4:1 as substrate measured after 1 hr in presence of ATP by spectrophotometric analysis.
T1 sequence (P35968 whole entry): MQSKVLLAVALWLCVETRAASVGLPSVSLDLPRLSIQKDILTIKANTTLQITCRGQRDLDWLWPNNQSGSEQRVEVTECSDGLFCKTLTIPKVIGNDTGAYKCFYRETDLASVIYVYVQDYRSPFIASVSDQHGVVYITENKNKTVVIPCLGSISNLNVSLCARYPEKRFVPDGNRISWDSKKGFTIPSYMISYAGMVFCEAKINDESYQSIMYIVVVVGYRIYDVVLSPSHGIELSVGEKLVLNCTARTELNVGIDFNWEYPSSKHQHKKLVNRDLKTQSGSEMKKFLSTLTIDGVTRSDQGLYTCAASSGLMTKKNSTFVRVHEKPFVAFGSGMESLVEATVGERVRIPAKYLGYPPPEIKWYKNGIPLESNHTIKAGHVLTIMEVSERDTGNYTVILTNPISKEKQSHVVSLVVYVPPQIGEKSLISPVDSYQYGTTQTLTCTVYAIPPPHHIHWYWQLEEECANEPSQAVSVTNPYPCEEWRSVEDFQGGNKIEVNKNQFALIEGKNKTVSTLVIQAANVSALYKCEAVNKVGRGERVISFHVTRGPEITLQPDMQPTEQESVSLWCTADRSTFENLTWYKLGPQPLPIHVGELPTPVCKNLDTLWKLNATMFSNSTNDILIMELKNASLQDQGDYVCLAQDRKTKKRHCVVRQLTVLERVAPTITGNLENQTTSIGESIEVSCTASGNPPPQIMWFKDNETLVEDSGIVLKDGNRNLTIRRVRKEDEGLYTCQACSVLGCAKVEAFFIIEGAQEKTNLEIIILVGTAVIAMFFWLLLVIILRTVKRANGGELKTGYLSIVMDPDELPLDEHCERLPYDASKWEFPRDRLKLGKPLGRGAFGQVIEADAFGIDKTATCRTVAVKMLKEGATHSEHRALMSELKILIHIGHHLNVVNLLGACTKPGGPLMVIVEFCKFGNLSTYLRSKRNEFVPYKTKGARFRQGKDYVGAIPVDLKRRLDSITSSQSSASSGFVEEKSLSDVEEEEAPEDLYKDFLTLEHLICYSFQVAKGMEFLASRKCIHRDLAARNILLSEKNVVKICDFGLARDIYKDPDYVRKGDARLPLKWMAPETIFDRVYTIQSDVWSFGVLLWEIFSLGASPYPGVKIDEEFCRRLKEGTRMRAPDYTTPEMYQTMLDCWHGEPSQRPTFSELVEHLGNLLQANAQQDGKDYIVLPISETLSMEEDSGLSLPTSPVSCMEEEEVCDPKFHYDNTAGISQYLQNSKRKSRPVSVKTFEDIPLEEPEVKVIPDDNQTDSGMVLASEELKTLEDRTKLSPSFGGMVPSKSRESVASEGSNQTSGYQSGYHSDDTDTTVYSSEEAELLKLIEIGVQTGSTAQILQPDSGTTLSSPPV
Another series deals with Chorioallantoic membrane. In words: Antiangiogenic activity in chicken fertilized egg chorioallantoic membrane assessed as decrease in blood vessel growth at 10 nM measured after 48 hrs by microscopic analysis. The class given is functional, tissue-based. The note with it: Gallus gallus.
Series [4] has as its target T1, Vascular endothelial growth factor receptor 2. To be noted: at 1 µM.
Description: Inhibition of VEGFR2 (unknown origin) at 1 uM using poly (Glu,Tyr) 4:1 as substrate measured after 1 hr in presence of ATP by spectrophotometric analysis relative to control
Series [5] has as its system HepG2. In words: Cell cycle arrest in human HepG2 cells assessed as accumulation at G1 phase at 1 nM measured after 6 hrs by propidium iodide staining based flow cytometry analysis (reference value: 47.9 %). The class given is functional. On the technique in general: In flow cytometry, cells or beads pass a laser one at a time.
The subject of series [6] is HepG2. In words: Cell cycle arrest in human HepG2 cells assessed as accumulation at G2 phase at 1 nM measured after 6 hrs by propidium iodide staining based flow cytometry analysis (reference value: 52.1 %). Type of series: functional.
Series [7] has as its system HepG2. The series is described as follows: Cell cycle arrest in human HepG2 cells assessed as accumulation at S phase at 1 nM measured after 6 hrs by propidium iodide staining based flow cytometry analysis (reference value: 0 %). The class given is functional.
Series [8] relates to HepG2. The series is described as follows: Cell cycle arrest in human HepG2 cells assessed as accumulation at G1 phase at 10 nM measured after 6 hrs by propidium iodide staining based flow cytometry analysis (reference value: 47.9 %). The class given is functional.
Series [9] has as its system HepG2. The series is described as follows: Cell cycle arrest in human HepG2 cells assessed as accumulation at G2 phase at 10 nM measured after 6 hrs by propidium iodide staining based flow cytometry analysis (reference value: 52.1 %). Type of series: functional.
Series [10] has as its system HepG2. The series is described as follows: Cell cycle arrest in human HepG2 cells assessed as accumulation at S phase at 10 nM measured after 6 hrs by propidium iodide staining based flow cytometry analysis (reference value: 0 %). The class given is functional.
Series [11] has as its system HepG2. The series is described as follows: Induction of apoptosis in human HepG2 cells assessed as apoptotic cells at 1 nM measured after 6 to 24 hrs by dUTP-FITC/propidium iodide staining based flow cytometry analysis (reference value: 2.6 %). The class given is functional.
Series [12] concerns HepG2. The series is described as follows: Induction of apoptosis in human HepG2 cells assessed as apoptotic cells at 10 nM measured after 6 to 24 hrs by dUTP-FITC/propidium iodide staining based flow cytometry analysis (reference value: 2.6 %). The class given is functional.
Series [13] is described as follows: Solubility of compound. Type of series: physicochemical.
The test system of series [14] is HepG2. In words: Cell cycle arrest in human HepG2 cells assessed as accumulation at G0/G1 phase measured after 6 hrs by propidium iodide staining based flow cytometry analysis. Type of series: functional.
For series [15], the system named is HepG2. The series is described as follows: Induction of apoptosis in human HepG2 cells assessed as necrotic cells at 1 nM measured after 24 hrs by dUTP-FITC/propidium iodide staining based flow cytometry analysis (reference value: 0.2 %).
Series [16] has as its system HepG2. The series is described as follows: Induction of apoptosis in human HepG2 cells assessed as necrotic cells at 10 nM measured after 24 hrs by dUTP-FITC/propidium iodide staining based flow cytometry analysis (reference value: 0.2 %).

Calls of active or inactive are those of the source. The calls are words filed in the database; no cut-off is given here.

Chain of Epidermal growth factor receptor (Homo sapiens) (P00533 whole entry): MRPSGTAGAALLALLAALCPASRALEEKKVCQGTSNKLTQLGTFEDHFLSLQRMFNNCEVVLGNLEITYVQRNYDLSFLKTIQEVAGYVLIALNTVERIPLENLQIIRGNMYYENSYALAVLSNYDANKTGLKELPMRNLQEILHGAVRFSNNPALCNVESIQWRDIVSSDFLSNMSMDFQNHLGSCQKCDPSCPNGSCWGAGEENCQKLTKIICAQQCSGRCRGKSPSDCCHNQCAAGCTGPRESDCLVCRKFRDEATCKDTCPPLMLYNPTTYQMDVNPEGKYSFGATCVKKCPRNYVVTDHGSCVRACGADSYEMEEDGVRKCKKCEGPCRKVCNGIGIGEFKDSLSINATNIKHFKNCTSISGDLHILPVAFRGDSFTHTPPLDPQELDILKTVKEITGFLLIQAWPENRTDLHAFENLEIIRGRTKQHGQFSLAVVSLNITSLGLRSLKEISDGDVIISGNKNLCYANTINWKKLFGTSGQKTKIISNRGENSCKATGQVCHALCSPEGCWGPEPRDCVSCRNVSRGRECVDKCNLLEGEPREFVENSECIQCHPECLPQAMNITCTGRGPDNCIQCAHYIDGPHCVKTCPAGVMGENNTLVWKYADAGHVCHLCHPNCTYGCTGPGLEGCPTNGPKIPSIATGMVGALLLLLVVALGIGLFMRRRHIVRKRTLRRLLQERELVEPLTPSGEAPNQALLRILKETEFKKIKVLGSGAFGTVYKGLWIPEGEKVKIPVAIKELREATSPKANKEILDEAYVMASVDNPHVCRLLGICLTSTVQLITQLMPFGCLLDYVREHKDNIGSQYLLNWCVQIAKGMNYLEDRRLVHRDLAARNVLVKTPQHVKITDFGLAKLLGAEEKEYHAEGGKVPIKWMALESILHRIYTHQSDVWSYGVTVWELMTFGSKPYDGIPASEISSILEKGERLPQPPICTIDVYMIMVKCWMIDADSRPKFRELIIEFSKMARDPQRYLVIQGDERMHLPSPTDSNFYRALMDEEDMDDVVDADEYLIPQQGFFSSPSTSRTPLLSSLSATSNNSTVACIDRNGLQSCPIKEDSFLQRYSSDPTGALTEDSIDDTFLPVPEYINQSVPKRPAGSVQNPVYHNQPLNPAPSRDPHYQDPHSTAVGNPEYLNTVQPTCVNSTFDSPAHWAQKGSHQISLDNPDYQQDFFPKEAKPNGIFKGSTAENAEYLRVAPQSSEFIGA

A word on the inhibition: it is the change of the read-out against control, counted positive when it falls. In general, IC50 refers to the point on the concentration scale where inhibition reaches its midpoint. With `O=C(Nc1ccc(Nc2ccc([N+](=O)[O-])c3ncnc(O)c23)cc1)c1ccc(Cl)cc1`, the inhibition in series [1] came out at 64.1%; in series [4], 97.9%. Also, the IC50 in the series with HUVEC was found to be 1.6 µM; in the series with HepG2 [2], 0.9 µM; in the series with A549, 83 µM; with MDA-MB-231, 95.1 µM; with L02 it was 73.5 µM; in series [3], 0.363 µM. Further, the outcome in the series with Chorioallantoic membrane was Active.
Turning to `O=C(Nc1ccc(Nc2ccc([N+](=O)[O-])c3ncnc(O)c23)cc1)c1ccc(F)cc1`, the inhibition in series [1] came out at 69.2%; in [4], 102%. Moreover, the half-maximal inhibitory concentration (IC50) turned out to be 0.5 µM in the series on HUVEC; 0.2 µM with HepG2 [2]; 69 µM with A549; 58.4 µM with MDA-MB-231; 63.2 µM with L02; 0.0648 µM in series [3]. Moreover, in the series with Chorioallantoic membrane, the result was Active. Further, the Activity with HepG2 [5] was determined as 52.6%; in the series on HepG2 [6], 35.9%; in the series with HepG2 [7] it was 11.5%; in the series on HepG2 [8], 41.7%; in the series with HepG2 [9] it was 24.3%; in the series with HepG2 [10], 34%. The Activity in the series with HepG2 [11] was 34.3%; with HepG2 [12], 72.2%; with HepG2 [14] it was “Dose-dependent effect”; in the series with HepG2 [15] it was 2.5%; in the series with HepG2 [16] it was 2.1%. For the same compound, in [13], the solubility entry was “Soluble”.
Regarding `O=C(Nc1ccc(Nc2ccc([N+](=O)[O-])c3ncnc(O)c23)cc1)c1ccccc1`, the inhibition in series [1] came out at 53.8%; in series [4], 92.4%. The IC50 in the series with HUVEC is 5.7 µM; with HepG2 [2] it was 7.41 µM; in the series on A549, 87.4 µM; with MDA-MB-231, 86.3 µM; in the series on L02, 65.3 µM; in [3], 0.735 µM. For the same compound, in the series with Chorioallantoic membrane, the outcome was Active.
Take `O=C(Nc1ccc(Nc2ccc([N+](=O)[O-])c3ncnc(O)c23)cc1)Nc1cc(C(F)(F)F)ccc1Cl`: the inhibition in series [1] is 21.8%; in series [4], 102%. The concentration for half-maximal inhibition (IC50) was 2.1 µM in the series with HUVEC; 13.7 µM in the series on HepG2 [2]; greater than 100 µM in the series with A549; greater than 100 µM in the series on MDA-MB-231; 84.2 µM in the series on L02; 0.0154 µM in [3].
